Reference: ChEMBL document CHEMBL3638502, “Isonicotinamide orexin receptor antagonists” (2013)

Target: T1, Orexin receptor type 2 (Homo sapiens, UniProt O43614)
T1 sequence (O43614 whole entry): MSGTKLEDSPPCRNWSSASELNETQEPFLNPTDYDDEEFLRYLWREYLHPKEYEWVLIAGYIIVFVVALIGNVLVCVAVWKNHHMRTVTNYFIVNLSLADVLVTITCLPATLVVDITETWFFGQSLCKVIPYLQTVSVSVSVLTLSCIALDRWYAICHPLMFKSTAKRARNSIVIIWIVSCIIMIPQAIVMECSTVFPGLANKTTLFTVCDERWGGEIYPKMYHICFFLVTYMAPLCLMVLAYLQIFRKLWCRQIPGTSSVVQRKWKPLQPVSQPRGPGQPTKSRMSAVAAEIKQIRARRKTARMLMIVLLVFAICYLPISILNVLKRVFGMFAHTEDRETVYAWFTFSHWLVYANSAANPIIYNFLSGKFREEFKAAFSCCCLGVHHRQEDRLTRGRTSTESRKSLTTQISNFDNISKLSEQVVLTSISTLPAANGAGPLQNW
Assay: FLIPR Ca2+ Flux Assay: Assay methodology using FLIPR Ca2+ Flux Assay (Okumura et al., Biochem. Biophys. Res. Comm. 280:976-981, 2001).
Format: functional

## COc1ccc(CNC(=O)c2cc(-c3cncc(C)c3)ncc2-c2ccccc2)nc1OC
  Ki: 0.72 nM
